{"source": "paper PMC8842277", "about": "“Highly Antiproliferative Latonduine and Indolo[2,3-c]quinoline Derivatives: Complex Formation with Copper(II) Markedly Changes the Kinase Inhibitory Profile” (Journal of Medicinal Chemistry, 2022)", "key": {"[1]": {"system": "HCT-116 colon carcinoma cells", "experiment": "MTT assay, 96 h", "type": "cell-based, human", "source_text": "(§1) The oncosuppressor protein p53 controls the cellular response to DNA strand breaks induced by cytotoxic drugs or by radiation.[58] The p53 protein may enhance cell chemosensitivity by promoting apoptosis via different mechanisms including activation of proapoptotic genes such as bax and repression of antiapoptotic genes such as bcl-2 or in contrast increase chemoresistance by promoting p21-mediated and p21-independent growth arrest and DNA repair and by activation of antiapoptotic genes such as bcl-x. There is strong evidence that the modulation of drug sensitivity by p53 may be both drug- and cell type-specific.[59] […] Accordingly, essential differences in chemosensitivity were observed between cells with wild-type p53 gene and cells with knocked out p53 gene by homologous recombination.[60]\n(§2) Human colonic adenocarcinoma cell lines Colo 205 doxorubicin-sensitive (ATCC-CCL-222) and Colo 320/MDR-LRP multidrug resistant over-expressing ABCB1 (MDR1)-LRP (ATCC-CCL-220.1) were purchased from LGC Promochem, Teddington, UK. The cells were cultured in an RPMI 1640 medium supplemented with 10% heat-inactivated fetal bovine serum, 2 mM L-glutamine, 1 mM Na-pyruvate, and 10 mM HEPES. The semi-adherent human colon cancer cells were detached with Trypsin-Versene (EDTA) solution for 5 min at 37 °C. An MRC-5 human embryonal lung fibroblast cell line (ATCC CCL-171) was purchased from LGC Promochem, Teddington, UK. The cells were cultured in Eagle’s minimal essential medium (EMEM, containing 4.5 g L^–1 glucose) supplemented with a non-essential amino acid mixture, a selection of vitamins, and 10% heat-inactivated fetal bovine serum. The HCT-116 colon carcinoma cells and isogenic p53-knock-out subline were a gift of Prof. Bert Vogelstein from The Johns Hopkins Oncology Center. Cells were cultured in McCoy’s 5A medium supplemented with 10% heat-inactivated fetal bovine serum and 4 mM L-glutamine. All cell lines were incubated at 37 °C, in a 5% CO2, 95% air atmosphere.\n(§3) MRC-5 non-cancerous human embryonic lung fibroblast and human colonic adeno-carcinoma cell lines (doxorubicin-sensitive Colo 205 and multidrug resistant Colo 320 colonic adenocarcinoma cells) were used to determine the effect of compounds on cell growth. The effects of increasing concentrations of compounds on cell growth were tested in 96-well flat-bottomed microtiter plates. The compounds were dissolved in DMSO and stock solutions of 10 mM were prepared. These were further diluted in the appropriate cell culture medium by twofold serial dilution starting from 100 or 10 μM for the compounds. The adherent human embryonal lung fibroblast cells were cultured in 96-well flat-bottomed microtiter plates using EMEM supplemented with 10% heat-inactivated fetal bovine serum. The density of the cells was adjusted to 1 × 10^4 cells in 100 μL per well, the cells were seeded for 24 h at 37 °C, 5% CO2, then the medium was removed from the plates containing the cells, and the dilutions of compounds previously made in a separate plate were added to the cells in 200 μL. In the case of the colonic adenocarcinoma cells, the twofold serial dilutions of compounds were prepared in 100 μL of RPMI 1640, horizontally. The semi-adherent colonic adenocarcinoma cells were treated with Trypsin-Versene (EDTA) solution. They were adjusted to a density of 1 × 10^4 cells in 100 μL of RPMI 1640 medium and were added to each well, with the exception of the medium control wells. […]"}, "[2]": {"system": "HCT-116 isogenic p53-knock-out subline", "experiment": "MTT assay, 96 h", "type": "cell-based, human", "conditions": "read-out: IC50 HCT-116p53ko, mean", "source_text": "as §1, §2, §3"}, "Colo320 cells": {"system": "Colo320 cells", "experiment": "Apoptosis assay, Annexin-V-FITC/PI flow cytometry", "conditions": "3 h induction", "protocol": "An apoptosis assay was performed by flow cytometry via the analysis of multidrug-resistant Colo320 cells stained with Annexin-V-FITC and propidium iodide (PI).\nColo320 cells were treated at the indicated concentration of the compounds. The dual parametric dot plots combining Annexin-V (FL1) and PI (FL3) fluorescence show the viable cell population in the lower left quadrant Annexin-V–/PI– (Q4), the early apoptotic cells in the lower right quadrant Annexin-V+/PI– (Q3), and the late apoptotic and necrotic cells in the upper right quadrant Annexin-V+/PI+ (Q2).\nThe assay was carried out for selected compounds using an Annexin V-FITC Apoptosis Detection Kit (cat. no. APOAF-50TST) from Sigma according to the manufacturer’s instructions. The concentration of the Colo320 cell suspension was adjusted to approximately 0.5 × 10^6 cells/mL in an RPMI 1640 medium, and the cell suspension was distributed in 1 mL of aliquots into a 24-well plate and then incubated overnight at 37 °C and 5% CO2. On the following day, the medium was removed and replaced by 1 mL of RPMI medium containing the compounds except the control samples. […] After the incubation period, the samples were washed with PBS and fresh RPMI 1640 medium was added to the samples. The cells were incubated overnight at 37 °C and 5% CO2. The next day, 200 μL of 0.25% Trypsin (Trypsin-Versen) was added to the samples until cells appeared detached followed by the addition of 400 μL of RPMI 1640 medium supplemented with 10% bovine serum. The cells were collected in Eppendorf tubes and centrifuged at 2000g for 2 min. The harvested cells were resuspended in fresh serum-free RPMI 1640 culture medium. After this step, the apoptosis assay was carried out according to the instructions of the manufacturer. The fluorescence was analyzed immediately using a ParTec CyFlow flow cytometer (Partec GmbH, Münster, Germany).\n• Apoptosis and DNA binding studies […]"}}, "data": [{"smiles": "N.N.[Cl][Pt][Cl]", "note": "[cisplatin, reference compound]", "values": [{"measurement": "IC50", "setting": "[1]", "value": 0.78, "unit": "µM"}, {"measurement": "IC50", "setting": "[2]", "value": 1.7, "unit": "µM"}, {"measurement": "Cell death % Q1", "setting": "Colo320 cells; 15 µM", "value": 1.64, "unit": "%"}, {"measurement": "Early apoptosis % Q3", "setting": "Colo320 cells; 15 µM", "value": 1.68, "unit": "%"}, {"measurement": "Late apoptosis and necrosis % Q2", "setting": "Colo320 cells; 15 µM", "value": 2.24, "unit": "%"}, {"measurement": "Cell death % Q1", "setting": "Colo320 cells; 30 µM", "value": 0.79, "unit": "%"}, {"measurement": "Early apoptosis % Q3", "setting": "Colo320 cells; 30 µM", "value": 4.90, "unit": "%"}, {"measurement": "Late apoptosis and necrosis % Q2", "setting": "Colo320 cells; 30 µM", "value": 4.07, "unit": "%"}]}]}
